Test results taken from PMC5223195, “Novel long-chain compounds with both immunomodulatory and MenA inhibitory activities against Staphylococcus aureus and its biofilm” (Scientific Reports, 2017).
≈ marks a conversion by molar mass, not a printed value. Like-named read-outs stand apart in the source and are kept apart here. Values belong to the molecule of their own block, whether it stands above or below them.

Assays:
MRSA USA100 = test: MIC against MRSA USA100; format: cell-based, Staphylococcus aureus; conditions: Staphylococcus aureus, read-out: MIC, Staphylococcus aureus isolate USA100
Method: (§1) 96-well plates were seeded with 5 × 10^5 CFU/mL in a volume of 100 μL of tryptic soy broth (TSB) per well for Staphylococcus aureus assays. Compounds were dissolved in DMSO and serially diluted as 1:2 dilutions to give the final concentration ranging from 0.25 to 128 μg/mL per well. […] Plates were incubated at 37 °C for 18–20 hours and MIC was determined by reading OD625. For M.avium and M.abscessus, 7H9 broth media was used for determination of MICs. The final concentration was 5 × 10^5 CFU/mL in each well. The plate was incubated at 37 °C for 7–8 days and MICs were determined using a Tecan microplate reader (OD625) and resazurin reduction assay.

MRSA USA200 = test: MIC against MRSA USA200; format: cell-based, Staphylococcus aureus; conditions: for MIC: Staphylococcus aureus, read-out: MIC, Staphylococcus aureus isolate USA200
Method: as §1

MRSA USA300 = test: MIC against MRSA USA300; format: cell-based, Staphylococcus aureus; conditions: Staphylococcus aureus, read-out: MIC, Staphylococcus aureus isolate USA300
Method: as §1

MRSA USA400 = test: MIC against MRSA USA400; format: cell-based, Staphylococcus aureus; conditions: Staphylococcus aureus, read-out: MIC, Staphylococcus aureus isolate USA400
Method: as §1

MRSA USA700 = test: MIC against MRSA USA700; format: cell-based, Staphylococcus aureus; conditions: for MIC: Staphylococcus aureus, read-out: MIC, Staphylococcus aureus isolate USA700
Method: as §1

Enterococcus faecalis = test: MIC against Enterococcus faecalis; format: cell-based; conditions: read-out: MIC, EF
MRSA USA800 = test: MIC against MRSA USA800; format: cell-based, Staphylococcus aureus; conditions: Staphylococcus aureus; TSB, 37 °C, 18–20 hours; read-out: MIC, Staphylococcus aureus isolate USA800
Method: as §1

[1] = test system: Methicillin susceptible Staphylococcus aureus; test: MIC against MSSA; format: cell-based; conditions: MSSA
Method: as §1

MRSA USA500 = test: MIC against MRSA USA500; format: cell-based, Staphylococcus aureus; conditions: Staphylococcus aureus; TSB, 37 °C, 18–20 hours; read-out: MIC, Staphylococcus aureus isolate USA500
Method: as §1

Pseudomonas aeruginosa = test: MIC against Pseudomonas aeruginosa; format: cell-based; conditions: read-out: MIC, PA
MRSA (USA700) biofilms = test: S. aureus biofilm assay; format: cell-based, Staphylococcus aureus
Method: Biofilm assays were performed using a method previously described with modification. A 96 well plate was precoated with 20% human plasma (Sigma) in 0.05 M carbonate buffer, pH 9.6 at 4 °C for 24 h. MRSA was cultured overnight in TSB containing 3% NaCl and 0.5% glucose. The overnight culture was diluted with TSB/NaCl/Glucose media until OD600 reached 0.05. After carefully removing the liquid from the 96 well plate, 200 μL of MRSA dilution was added to each well in triplicate. The plate was incubated at 37 °C for 24 h and carefully washed with PBS twice. MH broth (200 μL) containing a compound was added to each well in triplicate and incubated at 37 °C for 24 h. After washing with PBS twice, the biofilm was scraped in 100 μL of PBS and serially diluted and plated on TSA to determine CFU.

MRSA (USA200) = test: Colony morphology / small colony variant formation on TSA; format: cell-based, Staphylococcus aureus; conditions: USA200 on TSA, 37 °C, up to 96 h (3a 4–16 μg/mL), 72 h (7c, rifampin)
Method: MRSA was streaked and then incubated on tryptic soy agar (TSA) containing 0, 2, 4, 8 or 16 μg/mL of inhibitor 3a or 4 μg/mL of 7C or 0.025 μg/mL of rifampin at 37 °C for 96 h. MK-4 (100 μg/mL) was supplemented in TSA containing 8 μg/mL of 3a for the rescue experiment.

SMILES: Brc1ccc2cc(OCCCCCCCCN3CCCCC3)ccc2c1 [5d]
MIC (MRSA USA100): 8 µg/mL (≈ 19.1 µM)
MIC (MRSA USA400): 4 µg/mL (≈ 9.56 µM)
MIC (MRSA USA700): 16 µg/mL (≈ 38.2 µM)

SMILES: Brc1ccc(CCNCCCCCCCCOc2ccc3cc(Br)c(OCc4ccccc4)cc3c2)cc1 [6e]
MIC (MRSA USA200): 128 µg/mL (≈ 200 µM)
MIC (MRSA USA300): > 128 µg/mL
MIC (MRSA USA700): 128 µg/mL (≈ 200 µM)

SMILES: c1cc2ccc(OCCCN3CCCCC3)cc2cc1OCCCN1CCCCC1 [7b]
MIC (MRSA USA700): > 128 µg/mL

SMILES: Fc1ccc(N2CCN(CCCOc3ccc4ccc(OCCCN5CCN(c6ccc(F)cc6)CC5)cc4c3)CC2)cc1 [7d, 2,7-bis(3-(4-(4-fluorophenyl)piperazin-1-yl)propoxy)naphthalene]
MIC (MRSA USA700): > 128 µg/mL

SMILES: CN(C)c1ccc(O)c2c1C[C@H]1C[C@H]3[C@H](N(C)C)C(O)=C(C(N)=O)C(=O)[C@@]3(O)C(O)=C1C2=O [Minomycin, Minocycline, reference compound]
MIC (MRSA USA400; TSB, 37 °C, 18–20 hours): 0.5 µg/mL (≈ 1.09 µM)
MIC (MRSA USA500): < 0.06 µg/mL
MIC, Staphylococcus aureus isolate USA700 (MRSA USA700; TSB, 37 °C, 18–20 hours): < 0.06 µg/mL
MIC (Enterococcus faecalis): 16 µg/mL (≈ 35 µM)
MRSA biofilm growth compared to the positive control (MRSA (USA700) biofilms; USA700 biofilm, 0.5 and 0.03 mg/mL, 24 h): significant decrease
fold reduction of MRSA biofilm compared to the positive control (MRSA (USA700) biofilms; USA 700 biofilm, 8300 × MIC): 10^6 fold

SMILES: CO[C@H]1/C=C/O[C@@]2(C)Oc3c(C)c(O)c4c(O)c(c(/C=N/N5CCN(C)CC5)c(O)c4c3C2=O)NC(=O)/C(C)=C\C=C\[C@H](C)[C@H](O)[C@@H](C)[C@@H](O)[C@@H](C)[C@H](OC(C)=O)[C@@H]1C [rifampin, reference compound]
induction of small colony variants (SCV) (MRSA (USA200)): showed growth of SCV

Other lines, results leading:

MIC (MRSA USA100; TSB, 37 °C, 18–20 hours): 32 µg/mL (≈ 60 µM)
MIC (MRSA USA200; TSB, 37 °C, 18–20 hours): 8 µg/mL (≈ 15 µM)
MIC (MRSA USA300; TSB, 37 °C, 18–20 hours): 32 µg/mL (≈ 60 µM)
MIC (MRSA USA400; TSB, 37 °C, 18–20 hours): 16 µg/mL (≈ 30 µM)
MIC (MRSA USA700; TSB, 37 °C, 18–20 hours): 32 µg/mL (≈ 60 µM)
MIC (Enterococcus faecalis): 8 µg/mL (≈ 15 µM)
SMILES: Brc1ccc(CCNCCCCCCCCOc2ccc3cc(Br)ccc3c2)cc1 [5c]

MIC (MRSA USA200; TSB, 37 °C, 18–20 hours): 8 µg/mL (≈ 15.7 µM)
MIC (MRSA USA400; TSB, 37 °C, 18–20 hours): 8 µg/mL (≈ 15.7 µM)
MIC (MRSA USA700; TSB, 37 °C, 18–20 hours): 16 µg/mL (≈ 31.3 µM)
MIC (MRSA USA800): 64 µg/mL (≈ 125 µM)
MIC [1]: 16 µg/mL (≈ 31.3 µM)
MIC (Enterococcus faecalis): 4 µg/mL (≈ 7.84 µM)
SMILES: C=CCN(C)CCCCCCCCOc1ccc2cc(Br)c(OCc3ccccc3)cc2c1 [6a]

MIC (MRSA USA100; TSB, 37 °C, 18–20 hours): > 128 µg/mL
MIC (MRSA USA400; TSB, 37 °C, 18–20 hours): > 128 µg/mL
MIC (MRSA USA500): > 128 µg/mL
MIC (MRSA USA700; TSB, 37 °C, 18–20 hours): > 128 µg/mL
MIC (MRSA USA800): > 128 µg/mL
MIC [1]: > 128 µg/mL
SMILES: Fc1ccc(CCNCCCCCCCCOc2ccc3cc(Br)c(OCc4ccccc4)cc3c2)cc1 [6c]

MIC (MRSA USA300; TSB, 37 °C, 18–20 hours): > 128 µg/mL
MIC (MRSA USA400; TSB, 37 °C, 18–20 hours): > 128 µg/mL
MIC (MRSA USA700; TSB, 37 °C, 18–20 hours): 64 µg/mL (≈ 108 µM)
MIC [1]: 64 µg/mL (≈ 108 µM)
MIC (Enterococcus faecalis): 16 µg/mL (≈ 26.9 µM)
SMILES: Clc1ccc(CCNCCCCCCCCOc2ccc3cc(Br)c(OCc4ccccc4)cc3c2)cc1 [6d]

MIC, Staphylococcus aureus isolate USA200 (MRSA USA200; TSB, 37 °C, 18–20 hours): >128 µg/mL
MIC, Staphylococcus aureus isolate USA700 (MRSA USA700; TSB, 37 °C, 18–20 hours): 128 µg/mL (≈ 335 µM)
SMILES: C=CCN(C)CCCOc1ccc2ccc(OCCCN(C)CC=C)cc2c1 [7a]

MIC (MRSA USA100; TSB, 37 °C, 18–20 hours): 0.5 µg/mL (≈ 1.48 µM)
MIC (MRSA USA200; TSB, 37 °C, 18–20 hours): 1 µg/mL (≈ 2.96 µM)
MIC (MRSA USA300; TSB, 37 °C, 18–20 hours): 1 µg/mL (≈ 2.96 µM)
MIC (MRSA USA400; TSB, 37 °C, 18–20 hours): 1 µg/mL (≈ 2.96 µM)
MIC (MRSA USA500): 0.5 µg/mL (≈ 1.48 µM)
MIC (MRSA USA700; TSB, 37 °C, 18–20 hours): 1 µg/mL (≈ 2.96 µM)
MIC (MRSA USA800): 0.5 µg/mL (≈ 1.48 µM)
MIC [1]: 1 µg/mL (≈ 2.96 µM)
MIC (Enterococcus faecalis): > 32 µg/mL
MIC (Pseudomonas aeruginosa): 1 µg/mL (≈ 2.96 µM)
SMILES: CC(=O)NC[C@H]1CN(c2ccc(N3CCOCC3)c(F)c2)C(=O)O1 [Linezolid, reference compound]
